For 18 molecules, IC50 results are on record in patent US10954228B2 (NATIONAL INSTITUTES OF HEALTH, UNITED STATES DEPARTMENT OF …, priority 2016, dated 2021).

Some results are limits rather than exact numbers.

The target of one assay is Human LDHA (Homo sapiens (Human), UniProt P00338). Nature of the assay: human LDHA primary biochemical assay. Particulars: biochemical LDHA inhibitory activity, assay of Example 1; activity level classes defined in nM. In outline:
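Human LDHA at 2 nM with 0.06 mM NADH and 0.2 mM sodium pyruvate in 200 mM Tris HCl pH 7.4, 100 μM EDTA, 0.01% TWEEN-20 (final). NADH consumption coupled to resazurin/diaphorase (0.037 mM; 0.133 mg/mL); inhibition read by fluorescence.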

For a further assay, the system named is MiaPaCa2 cells. The assay is described as follows: cell-based HT lactate assay by colorimetric/fluorometric detection (cellular inhibition of lactate production). Particulars: Homo sapiens, MIA PaCa-2, assay of Example 6. Here is the method: This example describes a cell-based metabolite assay by colorimetric/fluorometric detection employed in the characterization of a compound of formula (I) in an embodiment of the invention.
Cell-based HT Lactate assay is a miniaturized Biovision Lactate Colorimetric/Fluorometric Assay Kit (Cat #K607-100). The assay is roughly a 3.5 hour assay run in a 1536 plate format. Cell number optimization should be run for each cell line to achieve an optimal number in which lactate production equals roughly 90% of the standard curve range. Cell number per well optimization has been performed with the following cell lines: MiaPaCa2—500 cells/well, SNU398—500 cells/well, and P493—500 cells/well.

As usually defined, the IC50 is the concentration that inhibits the measured activity by half. Read a high IC50 as a need for much substance.

As to `NS(=O)(=O)c1ccc(Cc2c(-c3ccc(F)c(-c4ccc5c(c4)CCC5)c3)nn(-c3nc(C(=O)O)cs3)c2CC2CC2)cc1F` [Compound 155, 2-(5-(cyclopropylmethyl)-3-(3-(2,3-dihydro-1H-inden-5-yl)-4-fluorophenyl)-4-(3-fluoro-4-sulfamoylbenzyl)-1H-pyrazol-1-yl)thiazole-4-carboxylic acid], the half-maximal inhibitory concentration (IC50) was less than 100 nM against Human LDHA and less than 1000 nM in the assay on MiaPaCa2 cells.
The like results for `CC(C)c1ccc(-c2cccc(-c3nn(-c4nc(C(=O)O)cs4)c(CC4CC4)c3Cc3ccc(S(N)(=O)=O)c(F)c3)c2)cc1` [Compound 169, 2-(5-(cyclopropylmethyl)-4-(3-fluoro-4-sulfamoylbenzyl)-3-(4′-isopropyl-[1,1′-biphenyl]-3-yl)-1H-pyrazol-1-yl)thiazole-4-carboxylic acid] were, in that order, less than 100 nM and less than 1000 nM.
For `NS(=O)(=O)c1ccc(Cc2c(-c3cccc(C#Cc4ccc(C(F)(F)F)s4)c3)nn(-c3nc(C(=O)O)cs3)c2CC2CC2)cc1F` [Compound 124, 2-(5-(cyclopropylmethyl)-4-(3-fluoro-4-sulfamoylbenzyl)-3-(3-((5-(trifluoromethyl)thiophen-2-yl)ethynyl)phenyl)-1H-pyrazol-1-yl)thiazole-4-carboxylic acid] the same measures were 100 to 1000 nM and less than 1000 nM.
Turning to `NS(=O)(=O)c1ccc(Cc2c(-c3cccc(-c4ccc(Cl)cc4)c3)nn(-c3nc(C(=O)O)cs3)c2CC2CC2)cc1F` [Compound 166, 2-(3-(4′-chloro-[1,1′-biphenyl]-3-yl)-5-(cyclopropylmethyl)-4-(3-fluoro-4-sulfamoylbenzyl)-1H-pyrazol-1-yl)thiazole-4-carboxylic acid], the IC50 on Human LDHA was less than 100 nM; with MiaPaCa2 cells it was less than 1000 nM.
For `CC(C)c1ccc(-c2cc(-c3nn(-c4nc(C(=O)O)cs4)c(CC4CC4)c3Cc3ccc(S(N)(=O)=O)c(F)c3)ccc2F)cc1` [Compound 142, 2-(5-(cyclopropylmethyl)-3-(6-fluoro-4′-isopropyl-[1,1′-biphenyl]-3-yl)-4-(3-fluoro-4-sulfamoylbenzyl)-1H-pyrazol-1-yl)thiazole-4-carboxylic acid], the IC50 with MiaPaCa2 cells is less than 1000 nM.
In the assay with MiaPaCa2 cells, `CCC#Cc1cc(-c2nn(-c3nc(C(=O)O)cs3)c(CC3CC3)c2Cc2ccc([S+](N)(=O)[O-])c(F)c2)ccc1F` [Compound 109, 2-(3-(3-(but-1-yn-1-yl)-4-fluorophenyl)-5-(cyclopropylmethyl)-4-(3-fluoro-4-sulfamoylbenzyl)-1H-pyrazol-1-yl)thiazole-4-carboxylic acid] registered an IC50 of less than 1000 nM.
As to `Cc1ccc(C#Cc2cccc(-c3nn(-c4nc(B(O)O)cs4)c(CC4CC4)c3Cc3ccc(S(N)(=O)=O)c(F)c3)c2)s1` [Compound 135, (2-(5-(cyclopropylmethyl)-4-(3-fluoro-4-sulfamoylbenzyl)-3-(3-((5-methylthiophen-2-yl)ethynyl)phenyl)-1H-pyrazol-1-yl)thiazol-4-yl)boronic acid], at Human LDHA, the half-inhibitory concentration (IC50) is 1000 to 57000 nM.
Consider `NS(=O)(=O)c1ccc(Cc2c(-c3cccc(-c4ccc(C(F)(F)C(F)(F)F)cc4)c3)nn(-c3nc(C(=O)O)cs3)c2CC2CC2)cc1F` [Compound 224, 2-(5-(cyclopropylmethyl)-4-(3-fluoro-4-sulfamoylbenzyl)-3-(4′-(perfluoroethyl)-[1,1′-biphenyl]-3-yl)-1H-pyrazol-1-yl)thiazole-4-carboxylic acid], for which the IC50 against Human LDHA lay within 100 to 1000 nM.
On to `Cc1ccc(C#Cc2cc(-c3nn(-c4nc(C(=O)O)cs4)c(CC4CC4)c3Cc3ccc(S(N)(=O)=O)c(F)c3)ccc2F)s1` [Compound 249, 2-(5-(cyclopropylmethyl)-3-(4-fluoro-3-((5-methylthiophen-2-yl)ethynyl)phenyl)-4-(3-fluoro-4-sulfamoylbenzyl)-1H-pyrazol-1-yl)thiazole-4-carboxylic acid], for which the IC50 against Human LDHA was less than 100 nM.
Still for that read-out and setting: with `Cc1ccc(C#Cc2cccc(-c3nn(-c4nc(C(=O)O)cs4)c(C(C)(C)C4CC4)c3Cc3ccc([S+](N)(=O)[O-])c(F)c3)c2)s1` [Compound 128, 2-(5-(2-cyclopropylpropan-2-yl)-4-(3-fluoro-4-sulfamoylbenzyl)-3-(3-((5-methylthiophen-2-yl)ethynyl)phenyl)-1H-pyrazol-1-yl) thiazole-4-carboxylic acid] the figure was 100 to 1000 nM.
`CC(C)(C)c1ccc(-c2cc(-c3nn(-c4nc(C(=O)O)cs4)c(CC4CC4)c3Cc3ccc(S(N)(=O)=O)c(F)c3)ccc2F)cc1` [Compound 193, 2-(3-(4′-(tert-butyl)-6-fluoro-[1,1′-biphenyl]-3-yl)-5-(cyclopropylmethyl)-4-(3-fluoro-4-sulfamoylbenzyl)-1H-pyrazol-1-yl)thiazole-4-carboxylic acid] had an IC50 against Human LDHA of 100 to 1000 nM.
The molecule `CC(C)Cc1ccc(-c2cccc(-c3nn(-c4nc(C(=O)O)cs4)c(CC4CC4)c3Cc3ccc(S(N)(=O)=O)c(F)c3)c2)cc1` [Compound 226, 2-(5-(cyclopropylmethyl)-4-(3-fluoro-4-sulfamoylbenzyl)-3-(4′-isobutyl-[1,1′-biphenyl]-3-yl)-1H-pyrazol-1-yl)thiazole-4-carboxylic acid] displayed a concentration for half-maximal inhibition (IC50) at Human LDHA of 100 to 1000 nM.
Take `Cc1ccc(-c2cccc(-c3nn(-c4nc(C(=O)O)cs4)c(CC4CC4)c3Cc3ccc(S(N)(=O)=O)c(F)c3)c2)cc1` [Compound 198, 2-(5-(cyclopropylmethyl)-4-(3-fluoro-4-sulfamoylbenzyl)-3-(4′-methyl-[1,1′-biphenyl]-3-yl)-1H-pyrazol-1-yl)thiazole-4-carboxylic acid]: the IC50 on Human LDHA is less than 100 nM.
Consider `CC(C)Cc1ccc(-c2cc(-c3nn(-c4nc(C(=O)O)cs4)c(CC4CC4)c3Cc3ccc(S(N)(=O)=O)c(F)c3)ccc2F)cc1` [Compound 227, 2-(5-(cyclopropylmethyl)-3-(6-fluoro-4′-isobutyl-[1,1′-biphenyl]-3-yl)-4-(3-fluoro-4-sulfamoylbenzyl)-1H-pyrazol-1-yl)thiazole-4-carboxylic acid], for which, at Human LDHA, the IC50 lay in the range of 100 to 1000 nM.
Same read-out and setting: with `NS(=O)(=O)c1ccc(Cc2c(-c3cccc(-c4ccc(C5CC5)cc4)c3)nn(-c3nc(C(=O)O)cs3)c2CC2CC2)cc1F` [Compound 222, 2-(3-(4′-cyclopropyl-[1,1′-biphenyl]-3-yl)-5-(cyclopropylmethyl)-4-(3-fluoro-4-sulfamoylbenzyl)-1H-pyrazol-1-yl)thiazole-4-carboxylic acid] the figure was 100 to 1000 nM; with `Cc1ccc(C#Cc2cccc(-c3nn(-c4nc(C(=O)O)cs4)c(CCC4CC4)c3Cc3ccc(S(N)(=O)=O)c(F)c3)c2)o1` [Compound 232, 2-(5-(2-cyclopropylethyl)-4-(3-fluoro-4-sulfamoylbenzyl)-3-(3-((5-methylfuran-2-yl)ethynyl)phenyl)-1H-pyrazol-1-yl)thiazole-4-carboxylic acid], less than 100 nM; with `CC(C)c1cnc(-c2cccc(-c3nn(-c4nc(C(=O)O)cs4)c(CC4CC4)c3Cc3ccc(S(N)(=O)=O)c(F)c3)c2)s1` [Compound 215, 2-[5-(cyclopropylmethyl)-4-[(3-fluoro-4-sulfamoylphenyl)methyl]-3-[3-(5-isopropyl-1,3-thiazol-2-yl)phenyl]pyrazol-1-yl]-1,3-thiazole-4-carboxylic acid], less than 100 nM.
Same read-out and setting: with `NS(=O)(=O)c1ccc(Cc2c(-c3ccc(F)c(NC(=O)c4ccccc4)c3)nn(-c3nc(C(=O)O)cs3)c2CC2CC2)cc1F` [Compound 152, 2-(3-(3-benzamido-4-fluorophenyl)-5-(cyclopropylmethyl)-4-(3-fluoro-4-sulfamoylbenzyl)-1H-pyrazol-1-yl)thiazole-4-carboxylic acid] the figure was less than 100 nM.
